Where no end group is shown, it is not given here.
Experiments:
[1] = system: vTreg53 TCR (transduced Jurkat T cells); assay: CD69/CD25 up-regulation on vTreg53 TCR transduced Jurkat T cells with peptide-pulsed K562-A^b cells; format: cell-based, Homo sapiens (cells); murine TCR; settings: for CD25 Emax, fold increase over Fat15: CD25, peptide titration, Figure 3E; for CD69 Emax, fold increase over Fat15: CD69, peptide titration, Figure 3D; for EC50: peptide titration, CD69 (Figure 3D), overnight, mean ± SD from n = 2 biological replicates, 1 representative of 3 experiments
Experimental: (§1) Figure 3. Identification of robust vTreg53 TCR agonists. Single-point mutants based on the Fat7 (A) or Fat15 (B) peptides were used to stimulate Fat-TCR transduced Jurkat T cells. Data shown are mean fluorescence intensity for CD69 up-regulation following overnight stimulation with the indicated peptides at 100 µM. (C) Potent SPs based on Fat15. Single-residue mutations from the Fat15 are shown in red. Anchor positions are shown in grey and potential TCR-facing positions are shown in green. A peptide titration of single- and double-point mutants from the Fat15 SP show up to ~4- (D; CD69) or ~8 fold (E; CD25) increase in Emax. (F) Surface plasmon resonance for Fat7, Fat15, Fat1562 and Fat2564 was used to determine the pMHC/Fat TCR affinity. All biotinylated pMHC were purified by SEC and immobilized in a streptavidin-coated SPR sensor chip from 200 up to 600 RU. Data are mean ± SD from n = 2 (A, D, E) or 3 (B) biological replicates from 1 representative of 3 independent experiments. Data shown in (F) is representative of 2 independent experiments. Figure 3—figure supplement 1. In vitro peptide stimulation of the vTreg53 TCR cells. (A) Expression of wild-type Ab MHC in stably transduced K562 cells. (B) Expression of vTreg53 TCR in stably transduced Jurkat T cells (TCRαβ-/-). (C) Fraction of CD25+/CD69+ cells following overnight stimulation with Fat mimotopes at the indicated concentrations. (D) Peptide-A^b - streptavidin PE (pAb -SAPE) titration of vTreg53 transduced Jurkat T cells. Cells were stained with 250 nM of pA^b-SAPE tetramer for 1 hr.
Cell lines were kept in a humidified incubator at 37°C with 5% CO2 unless otherwise denoted. Jurkat T cells (derived from acute T cell leukemia ATCC TIB-152) and K562 cells (ATCC CCL-243) were cultured in RPMI supplemented with 2 mM glutamax (Invitrogen), 10% FBS (Sigma),10 mM HEPES pH 8.0 (ThermoFisher), 1 mM Sodium Pyruvate (Gibco) and 50 U/ml penicillin and streptomycin (ThermoFisher). Validation of T cell lines was performed by staining with known markers pre- and post- transfection or transduction. HEK293T (Lenti-X; Takara Bio USA, #632180) cells (female derived kidney cell line) were grown in DMEM complete media (ThermoFisher) supplemented with 10% FBS, 2 mM L-glutamine, and 50 U/ml of penicillin and streptomycin. Cells were tested for mycoplasma contamination using the MycoAlert Mycoplasma Detection kit (Lonza) and found to be mycoplasma-negative. For peptide assays, Jurkat T cells were rested overnight or for 2–3 hr in fresh RPMI complete. Cells were co-cultured for 16 to 48 hr with surrogate APCs: K562 transduced with A^b. After overnight incubation, cells were washed in MACS buffer and stained with anti-TCR, A^b, CD69 and CD25. EBY100 yeast cells were cultured in sterile filtered standard YPD (Bacto Peptone, glucose and yeast extract). Transformed yeast were grown in SDCAA (yeast nitrogen base, casamino acids -ADE, -URA, -TRP, D-glucose and buffered to pH 4.5 using sodium citrate and citric acid monohydrate) and induced in SGCAA where galactose replaces D-glucose. EBY100 cells are grown at 30°C when cultured in SDCAA, or at 20°C when cultured in SGCAA at atmospheric CO2 in an orbital shaker set to an agitation speed of 250 rpm.

[2] = molecular target: vTreg53 (Fat) TCR; assay: Surface plasmon resonance, pMHC/Fat TCR affinity; format: binding, murine; settings: 25°C; for Kd: Biacore T100, biotinylated pMHC immobilized on SA chip 200 to 600 RU, HBS-P+, equilibrium, representative of 2 experiments
Experimental: as §1
High Five cells (Tni; Expression Systems) were grown in Insect X-press media (Lonza) or ESF 921 media (Expression Systems) with a final concentration of 10 mg/L of gentamicin sulfate (ThermoFisher) at 27°C at atmospheric CO2. SF9 cells are grown in SF900-III or -II serum-free media (ThermoFisher) with 10% FBS and final concentration 10 mg/L of gentamicin sulfate and 2 mM glutamax at 27°C at atmospheric CO2. P1 or P2 virus was used to infect volumes of 1–3 L of Hi5 cells at ∼2 × 10^6 cells/ml. Supernatant was harvested 2–3 days post-infection and spun down at 8000 rpm for 15 min. The supernatant containing expressed protein was treated to 100 mM Tris pH 8.0, 1 mM NiCl2, and 5 mM CaCl2 to precipitate contaminants. The supernatant and precipitate mixture was spun down at 8000 rpm for 20 min at 4°C to remove precipitate. The supernatant was incubated with Ni-NTA resin (QIAGEN) for >3 hr at room temperature. Ni-NTA beads were collected and washed in a Buchner funnel with 20 mM imidazole in 1 x HBS pH 7.2 and eluted with 200 mM imidazole in 1x HBS pH 7.2. Protein was concentrated in a 10 kDa filter (Millipore, UFC903024) to ~1 mL. When appropriate, protein was biotinylated with BirA ligase, 100 μM biotin, 40 mM Bicine pH 8.3, 10 mM ATP, and 10 mM Magnesium Acetate at 4°C overnight. All proteins were further purified by size-exclusion chromatography using Superdex Increase S200 or S75, as appropriate (GE Healthcare). All proteins for in vivo studies were cleared of endotoxin. Final endotoxin levels were determined using a chromogenic endotoxin quantitation kit (Thermo Fisher) and never greater than 1 Endotoxin Unit/mg of purified protein.
A GE Biacore T100 was used to measure the KD by equilibrium methods. Approximately 200 resonance units (RU) of human CD45, PD-1 or mouse PD-1 was captured on a SA-chip (GE Healthcare), including a reference channel of an unrelated protein. SPR runs were performed in HBS-P+ (GE Healthcare). All measurements were made with 2-fold serial dilutions using 45–60 s association (at 30 μl/min) followed by >240 s dissociation (30 μl/min) at 25°C. Regeneration was performed using HBS-P+, 2 M MgCl2 or 0.1 M Glycine, pH 3.1 for 15–20 s at 50 μl/min. Measurement of titrations at equilibrium were used to determine the KD using Biacore Analysis Software (GE Healthcare). All measurements were repeated twice.

Kd [2] | EC50 [1] | Sequence | CD69 up-regulation ([1]; overnight stimulation, screen at 100 µM) | koff ([2]; SPR) | kon ([2]; SPR) | CD25 Emax, fold increase over Fat15 [1] | CD69 Emax, fold increase over Fat15 [1] | affinity ([2]; SPR)
34.7 µM | – | LMFKGPHAVQAVG [Fat7] | able to up-regulate CD69 expression | fast kon and koff | fast kon | – | – | –
0.347 µM | 8.9 µM | TMYKNLRPWAATG [Fat2564] | – | slowest koff | – | 8.7 fold | ~5 fold | highest affinity
– | 14.3 µM | TMYKNPRPMAATG [Fat1562] | – | slowest koff | – | 4.1 fold | ~ 3 fold | highest affinity
